Laboratory results taken from paper PMC12169669, “Regio- and Stereoselective Synthesis of Nitro-fatty Acids as NRF2 Pathway Activators Working under Ambient or Hypoxic Conditions” (Journal of Medicinal Chemistry, 2025).

Legend:
Type in all cases: cell-based, mouse
HO-1 = HO-1 protein level in BMCs (Western blot); settings: 2 μM, 4 h; for HO-1 increase at 1% oxygen relative to atmospheric conditions: 1% vs 21% oxygen
Excerpt: (§1) Primary bone marrow cells (BMCs) were isolated from 8–12-week-old male C57BL/6 mice (25–30 g, AnLab, Czech Republic). Mice were housed under standard conditions. BMCs were isolated as follows: The day before isolation, phosphate-buffered saline (PBS), ACK Lysis Buffer (A10492-01, Thermo Fisher Scientific), and Iscove’s Modified Dulbecco’s Medium (IMDM) (12440-053, Thermo Fisher Scientific) were placed in a hypoxic chamber (InvivO2 400, Baker Ruskinn, UK) with adjustable oxygen control to equilibrate for the target oxygen concentrations. On the day of the experiment, animals were euthanized using ketamine/xylazine, and bilateral femurs were extracted. BMCs were flushed with hypoxic (1% O2 unless stated otherwise) PBS supplemented with 2% fetal bovine serum (FBS; low endotoxin, FB-1101/500, Biosera, France). After hemolysis at room temperature using hypoxic ACK Lysis Buffer, nucleated BMCs were washed with hypoxic PBS + 2% FBS and counted using a TC20 automated cell counter (Bio-Rad). Cells were kept under hypoxic conditions prior to treatment. The medium for BMC culture, consisting of IMDM with 2% FBS and 1% penicillin/streptomycin (LM-A4118/100, Biosera, France), was supplemented with 10 ng/mL mouse IL-3, 10 ng/mL mouse IL-6, and 50 ng/mL mouse stem cell factor - SCF (213-13, 216-16, and 250-03, respectively; all from PeproTech). Cells were cultured at 37 °C in a humidified atmosphere containing 5% CO2 and the specified oxygen concentrations (21%, 4%, or 1%).
(§2) Briefly, 1.5 × 10^6 BMCs were placed in 0.2 mL of complete medium in 1.5 mL microtubes and incubated with 2 μM NO2FAs or the control (medium only) for 1 (NRF2), 4 (heme oxygenase-1, HO-1), or 7 (glutamate-cysteine ligase modifier subunit, GCLM) hours at the specified oxygen levels (21%, 4%, or 1%). Cells were then spun down and washed with PBS (from this step onward, cells were processed under atmospheric conditions). Next, cells were lysed in 60 μL RIPA buffer (89901, Thermo Fisher Scientific) containing protease and phosphatase inhibitors cocktail (78442, Thermo Fisher Scientific). Cell lysates were sonicated and centrifuged at 15,000g for 3 min at 4 °C, and 15 μL of lane marker (3900, Thermo Fisher Scientific) was added to the supernatants. Samples were boiled for 3 min at 95 °C. Equal volumes of lysates (15–45 μL/well) were loaded onto 7–15% SDS-polyacrylamide gels. Proteins were then transferred onto PVDF membranes (IPVH85R, EMD Millipore Corp.) and blocked with 5% nonfat dry milk in TBST. Membranes were incubated overnight at 4 °C with the following primary antibodies: anti-β-actin (1:1000; #3700, Cell Signaling Technology), antivinculin (1:10,000; #SAV9264, Sigma-Aldrich), anti-NRF2 (1:500; A308758, Lot 38410, Antibodies.com, UK), anti-HO-1 (1:1000; #43966, Cell Signaling Technology), antihistone H3 (1:2000; #4499, Cell Signaling Technology), or anti-GCLM (1:100; sc-55586, Santa Cruz Biotechnology). This was followed by incubation with corresponding HRP-linked secondary antibodies (antimouse IgG, #7076, 1:1000–5000; or antirabbit IgG, #7074, 1:1000–2000; both from Cell Signaling Technology) for 1 h at room temperature. Protein bands were visualized using an enhanced chemiluminescent substrate (SuperSignal 34577/34095, Thermo Fisher Scientific). The optical densities of detected proteins were measured using ImageJ v1.52 (NIH).
(§3) 4 Expression of NRF2-target proteins HO-1 and GCLM. NO 2 FA derivatives upregulate the expression of NRF2-target proteins in mouse BMCs. BMCs were cultured under 21% or 1% oxygen conditions and treated with 2 μM of the tested NO 2 FAs for 4 h (A, B) or 7 h (C, D). HO-1 (A, B) and GCLM (C, D) expression in whole-cell lysates was subsequently analyzed. Results are presented as the fold change relative to control cells across different oxygen culture conditions. Data are expressed as mean ± SD from 3–5 independent experiments (n = 3–5). […]

Gclm = experiment: GCLM protein level in BMCs (Western blot); settings: 2 μM, 7 h
Excerpt: as §1, §2, §3

NRF2 = NRF2 translocation assay (nuclear fraction, Western blot); settings: BMCs, 2 μM, 1 h, 1% oxygen; for translocation of NRF2 to the nucleus, fold change relative to control: nuclear fraction
Experimental: For the NRF2 translocation assays, 5.5 × 10^6 BMCs were incubated in 0.5 mL of complete medium with 2 μM NO2FAs or the control for 1 h in 1.5 mL microtubes, but only at 1% oxygen. Cytosol, membrane and nuclear cell compartments were isolated with a Cell Fractionation Kit (9038, Cell Signaling Technology) according to the manufacturer’s instructions. Equal volumes of nuclear lysates (20 μL/well) were loaded onto 7–15% SDS-polyacrylamide gels. Histone H3 was used as the loading control for the nuclear fraction.
5 Subcellular localization of NRF2. NO 2 FA derivatives promote nuclear translocation of NRF2 in mouse BMCs. BMCs were cultured under 1% oxygen conditions and treated for 1 h with 2 μM of 10-NO 2 OA, 10-NO 2 LA, or 10-NO 2 SA. A cell fractionation kit was used to isolate the nuclear fraction (A), followed by the detection of NRF2 and histone H3 (used as a control nuclear protein). Western blot results (A) are shown as the fold change relative to control cells. Data are expressed as mean ± SD from two independent experiments (n = 2). Statistical analysis was performed using one-way ANOVA with Dunnett’s multiple comparisons test (* p < 0.05; *** p < 0.001). (B) Representative immunocytochemistry staining of BMCs with NRF2 antibody. BMCs were cultured in 1% oxygen followed by NRF2 and nuclei (DAPI) staining. Treatment with 10-NO2OA increased the colocalization of NRF2 with the nucleus (scale bar: 20 μm).

Row | SMILES | HO-1 increase at 1% oxygen relative to atmospheric conditions (HO-1) | HO-1 protein level, fold change relative to control (HO-1; 21% oxygen) | GCLM protein level, fold change relative to control (Gclm; 1% oxygen) | GCLM protein level, fold change relative to control (Gclm; 21% oxygen) | NRF2 translocation activity relative to 10-NO2LA (NRF2) | translocation of NRF2 to the nucleus, fold change relative to control (NRF2) | HO-1 protein level, fold change relative to control (HO-1; 1% oxygen)
1 | CCCCCCCC/C=C(\CCCCCCCC(=O)O)[N+](=O)[O-] [9-NO2OA, (9E)-9-Nitro-oleic Acid] | roughly 1.8 fold | significantly increased | nearly the same increase | nearly the same increase |  |  | 
2 | CCCCCCCC/C(=C\CCCCCCCC(=O)O)[N+](=O)[O-] [10-NO2OA, (9E)-10-Nitro-oleic Acid] | ~2.2 fold | significantly increased | nearly the same increase | nearly the same increase | ca. 1.7 fold | significantly increased | 
3 | CCCCCCCCC(CCCCCCCCC(=O)O)[N+](=O)[O-] (stereo not drawn) [10-NO2SA, 10-Nitro Stearic acid] |  | no significant effects | no significant effects | no significant effects |  | no effects | no significant effects
4 | CCCCC/C=C\C/C(=C\CCCCCCCC(=O)O)[N+](=O)[O-] [10-NO2LA, (9E,12Z)-10-Nitro Linoleic Acid] |  |  |  | only significant at 21% oxygen |  | significantly increased | only increased HO-1 under hypoxic conditions
